Patent US6552006B2, “Immunomodulatory polynucleotides in treatment of an infection by an intracellular pathogen” (The Regents of the University of California, priority 2000, dated 2003)
Marks after values point to notes of the source that are not given here.

Experiments:
[1] = system: spleen and liver of M. avium-infected mice; experiment: Histologic examination of spleen and liver of M. avium-infected mice; assay type: in vivo
Protocol: Sections of the spleen and liver collected from the experimental and control M. avium-infected mice at 2, 4, and 6 weeks post-infection, were fixed overnight in 10% buffered formalin at room temperature, and embedded in paraffin. The paraffin-embedded tissue was further sectioned (5 μm thickness), stained with hematoxylin-eosin and observed under an Olympus microscope. At least three sections from each organ of each of the experimental and control mice were evaluated and representative fields were viewed at 100×.

[2] = system: IL-12 (p70); experiment: Serum IL-12 (p70) by ELISA in mice; assay type: in vivo
Protocol: (§1) Serum obtained from M. avium-infected mice that received ISS or PBS was assayed for IFN-γ and IL-12 by ELISA using mouse IFN-γ and IL-12 (p70) ELISA kits (Endogen, Inc. Woburn, […]), respectively, and following the manufacturer's instructions.

[3] = system: IFN-γ; experiment: Serum IFN-γ by ELISA in mice; assay type: in vivo
Protocol: as §1

[4] = system: M. avium; experiment: Intracellular growth of M. avium in mouse bone marrow-derived macrophages (mBMDM) in vitro, CFU assay; assay type: cell-based, Mycobacterium avium; conditions: for % of CFU: 10 μg/ml 72 h prior to infection, medium alone = 100%
Protocol: A previously studied M. avium strain 13 (Hayashi, et al. (1999) Infect. Immun. 67:3558-3565; Meylan, et al. (1990) Infect. Immun. 58:2564-2568), isolated from an AIDS patient at UCSD, San Diego, Calif., was used in all experiments. The organism was cultured on Middlebrook 7H11 agar (Difco Laboratories, Detroit, Mich.) with OADC enrichment at 37° C. in the presence of 5% CO2 for two weeks. Transparent colonies were selectively picked and further cultured on Middlebrook 7H11 plates for two more weeks. The resulting colonies, which were predominantly transparent (>90%), were then collected and washed two times with phosphate-buffered saline (PBS). The bacteria were finally resuspended in Middlebrook 7H9 broth (Difco Laboratories) and the OD600 of the suspension was adjusted to 0.15-0.2. The suspension was aliquoted and stored at −70° C. until use. The number of organisms/ml of this suspension was determined by the colony forming unit (CFU) assay.
The number of CFU in a given sample was determined by colony counting as described previously (Ogata, et al. (1992) Infect. Immun. 60:4720-4725). Serial 10-fold dilutions of total cell lysates or tissue homogenates were performed in PBS. 10 μl of each dilution were plated on Middlebrook 7H11 plates supplemented with OADC enrichment. The plates were incubated up to 14 days at 37° C. The number of colonies was counted every alternate day from day 10 onwards until no new colonies appeared. This yielded the number of CFU/10 μl. The number of CFU in each well was then calculated.
Preparation of Murine Macrophages. Mouse bone marrow-derived macrophages (mBMDM) were prepared from mouse bone marrow using L-cell conditioned media, as described in Martin-Orozco, et al. (1999) […] 11:1111-1118.
Alternatively, 5×10^4 mBMDM or hMDM was treated with ISS for 3 days before infection. Macrophages treated with M-ODN or with media alone served as controls. After 3 days, the cells were infected for 2 hrs with M. avium at a macrophage:bacteria ratio of 2:1 for mBMDM or of 1:10 for hMDM, and subsequently cultured in fresh media without antibiotics. To examine attachment and/or invasion of M. avium, the macrophages were lysed immediately after washing, and the number of bacteria were enumerated by the CFU assay. Intracellular growth of M. avium was determined on days 1, 3, and 7 after infection. To account for all the mycobacteria in each group, corresponding lysates were combined and then the number of CFU was determined. To examine the efficacy of anti-mycobacterial treatments, CFU recovered from cells treated with medium alone were considered as 100% growth.
To determine whether treatment with ISS after infection alters M. avium growth, adherent cells were first infected with M. avium for 2 hrs and then these cells were cultured with fresh media containing ISS. Infected cells treated with M-ODN or medium alone served as controls. At day 7, intracellular growth of M. avium was assessed by CFU assay.

[5] = system: indoleamine 2,3-dioxygenase (IDO); experiment: IDO gene transcription in mBMDM in vitro, semi-quantitative RT-PCR; assay type: cell-based, mouse; conditions: mBMDM treated 3 days prior to M. avium infection; 4, 8, 24 hrs after infection
Protocol: 1-4×10^6 mBMDM were treated with ISS or M-ODN. After 3 days, the cells were infected with M. avium for 2 hrs. At 2, 24, and 48 hrs after infection, the M. avium-infected macrophages were lysed and total RNA was isolated using the Trizol Reagent (Gibco BRL). The induction of IDO gene transcription was measured by semi-quantitative […]. First-strand cDNA preparation and PCR amplification was carried out using the SuperScript Pre-amplification System (Gibco BRL) and AdvanTaq Plus DNA polymerase (Clontech, San Francisco, Calif.), respectively. PCR products were visualized by electrophoresis on 2% agarose gels. The primer sequences used were as follows:
For in vitro studies mBMDM were treated with ISS for 3 days prior to M. avium infection. Then, cells were lysed at 4, 8, and 24 hrs after infection, total RNA was extracted, and semi-quantitative RT-PCR was performed.

[6] = system: M. avium; experiment: Growth of M. avium in vivo in C57B1/6 mice, CFU per organ; parameters: species or system Mycobacterium avium; conditions: for viable bacteria in the lungs: week 2
[7] = other experiments, data not shown
[8] = ISS 3 days before i.v. infection, 10^7 organisms/mouse, four weeks after infection, vs M-ODN and PBS mice

Substance: 5′-TGACTGTGAACGTTCGAGATGA-3′ (SEQ ID NO:1) [ISS]
- histopathology of the livers ([1]; vs PBS-treated infected mice): no significant histopathological differences
- granulomas in the spleen ([1]; week 4, vs infected mice treated with PBS): notably smaller in size and surrounded by mononuclear cells
- granulomas in the spleens ([1]; week 6, vs PBS-treated infected mice): not significantly different
- serum IL-12 levels ([2]; M. avium-infected mice (10^6 organisms/mouse), 2, 4, 6 weeks, below ELISA detection): < 5 pg/mL
- time for serum IL-12 to attain basal levels post injection [2, 7]: ≤ 3 weeks
- time of peak serum level of IL-12 after administration [2, 7]: 1 days
- serum IFN-γ levels ([3]; M. avium-infected mice (10^6 organisms/mouse), 2, 4, 6 weeks, ISS-pretreated vs PBS-pretreated): no significant differences
- time for serum IFN-γ to attain basal levels post injection [3, 7]: ≤ 3 weeks
- time of peak serum level of IFN-γ after administration [3, 7]: 1 days
- inhibition of intracellular growth of M. avium in mBMDM from knockout mice ([4]; NADPH oxidase−/−, iNOS−/−, TNF-α−/−, IL-12p40−/−, IFN-α/βR−/−, IFN-γR−/− mBMDM, ISS 3 days before infection): 60-85%
- % of CFU ([4]; mBMDM from IFN-αR−/− 129S6/SvEv, day 7): 10.9 ± 01.7^b %
- % of CFU ([4]; mBMDM from IFN-γR−/− 129S6/SvEv, day 7): 7.6 ± 01.3^b %
- % of CFU ([4]; mBMDM from IL-12 p40−/− C57B1/6, day 7): 26.4 ± 10.1^b %
- % of CFU ([4]; mBMDM from INOS−/− C57B1/6, day 7): 37.3 ± 4.6^b %
- % of CFU ([4]; mBMDM from NADPH oxidase−/− (gp91 phox−/−) C57B1/6, day 7): 11.4 ± 1.5^b %
- % of CFU ([4]; mBMDM from TNF-α−/− C57B1/6, day 7): 24.0 ± 6.0^b %
- % of CFU ([4]; mBMDM from Wild type 129S6/SvEV, day 7): 17.0 ± 4.0^b %
- % of CFU ([4]; mBMDM from Wild type C57B1/6, day 7): 18.2 ± 7.3^b %
- reduction of bacterial growth in mBMDM ([4]; mBMDM infected first, then treated, ISS 10 μg/ml, CLA 0.1 μg/ml, 7 days after infection, compared to medium alone): 68%
- inhibition of intracellular growth of M. avium in mBMDM ([4]; treated 72 hrs before infection, day 7): 80%
- decrease of intracellular growth of M. avium in mBMDM ([4]; treated for 7 days starting two hours after infection, vs M-ODN or medium alone): 68%
- optimal induction of IDO gene transcription [5]: require both treatment with ISS and M. avium infection
- growth of M. avium in the therapeutic model ([6]; C57B1/6 mice, 10^7 CFU i.v., ISS-ODN 50 μg/mouse alone one week after infection, 5 weeks after infection): did not inhibit the growth of M. avium
- viable bacteria in the lungs ([6]; ISS 100 μg/mouse i.d. 3 days before infection, 10^6 organisms/mouse, vs PBS): significantly lower number of viable bacteria
- difference of CFU in the lungs, controls vs ISS-treated mice [6, 8]: 1 log
- difference of CFU in the spleen, controls vs ISS-treated mice [6, 8]: 2 logs
- number of bacteria in the spleen ([6]; ISS i.d. 3 days before infection, 10^6 organisms/mouse, vs PBS, effects maximal at 4 weeks): almost two logs lower number of bacteria
- CFU in the spleen ([6]; ISS pretreatment, 10^6 organisms/mouse, week 6, vs PBS): equaled that observed in the control mice
- bacterial load in the lungs ([6]; ISS pretreatment, 10^6 organisms/mouse, week 6, vs control mice): exceeded that found in the lungs of control mice
- bacterial loads in the liver ([6]; ISS pretreatment, 10^6 organisms/mouse, weeks 2, 4, 6, vs PBS): no significant difference
- bacteria in the spleen ([6]; ISS prior to infection, 10^7 organisms/mouse, 4 weeks, vs PBS): nearly two logs less bacteria
- splenic CFU counts ([6]; ISS prior to infection, 10^7 organisms/mouse, 6 weeks, vs control): similar
- viable bacteria in the lungs ([6]; ISS prior to infection, 10^7 organisms/mouse, vs PBS): significantly lower number of viable bacteria
- mycobacterial loads in the liver ([6]; ISS prior to infection, 10^7 organisms/mouse, weeks 2, 4, 6, vs PBS): no significant difference
- persistence of the protective effect after administration ([6]; single injection of ISS, 10^6 organisms/mouse): up to four weeks
